Test results as given in a melting point compilation (Tetko et al.; mined from patent text by program, amines drawn as free bases though some values may be those of a salt).

melting point	SMILES
104 to 106 °C	Cc1ccccc1CC1(CO)CCN(C(=O)OC(C)(C)C)CC1
151 to 152 °C	COC(=O)C(Cl)=Cc1cc(-n2c(OC)nc(C(F)(F)F)cc2=O)ccc1Cl
172 to 174 °C	COc1ccc2cc(C(=O)CNC(=O)c3ccccc3)ccc2c1
149 to 150 °C	CS(=O)CCNC(=O)c1cccc(-c2ccc3c(c2)C(Oc2ccc(Cl)cc2Cl)CC3)c1 (stereo unspecified)
187 to 189 °C	CC(C)c1ccc(-c2ccc(/C=C/C(=O)Nc3ccc(CN(C)C4CCOCC4)cc3)s2)cc1
215 to 218 °C	O=C(O)C1Cc2c(c(Cl)cc3c(-c4ccc(F)cc4)noc23)O1 (stereo unspecified)
142 to 145 °C	O=C(O)c1c(Cl)ccc(S(=O)(=O)N2CCCCC2)c1Cl
158 to 159 °C	CNC1CCCN(c2ccc3c(NC(=O)CC4CCCCC4)c(Cl)ccc3n2)C1 (stereo unspecified)
208 to 211 °C	CS(=O)c1nnc2c(=O)c3ccccc3ccn12 (stereo unspecified)
193 to 194 °C	O=C(CCc1ccc(NC(=O)C(F)(F)F)c([N+](=O)[O-])c1)Nc1ccc(Cl)cc1Cl
190 °C	O=C(Nc1cccc(Cl)c1)N1CCc2cc(S(=O)(=O)N3CCN(c4cccc(Cl)c4)CC3)ccc21
103 °C	CCN(Cc1cccc(-c2ccc(CC3SC(=O)NC3=O)cc2)c1)C(=O)OC(C)(C)C (stereo unspecified)
118 to 120 °C	COc1ccccc1N1CCN(C(=O)CCCN2CC=C(c3c[nH]c4cc(F)ccc34)CC2)CC1
185 °C	O=C(O)[C@@H]1CN(C(=O)OCc2ccccc2)CCN1C(=O)N1c2ccccc2CCc2ccccc21
222 °C	O=C(CCc1ccccc1)Nc1ccc(CN2C(=O)[C@H]3CCC[C@H]3N(C(=O)CN3C(=O)c4ccccc4C3=O)c3ccccc32)cc1 (relative stereo)
226 to 228 °C	NS(=O)(=O)c1cc2[nH]c(CCc3ccccc3)nc2cc1Cl
246 °C	CC(CO)(CO)NS(=O)(=O)c1cccc(NC(=O)c2cnn3c(C(F)F)cc(-c4ccc(C(F)(F)F)cc4)nc23)c1
166 to 168 °C	Cc1ccccc1NC(=O)CN1CC2CCC(C1)N2S(=O)(=O)c1cccc(C#N)c1
161 to 170 °C	O=Cc1ccc2c(c1)Cc1cc(Br)ccc1-2
134 to 136 °C	CCOC(=O)c1c(-c2ccc(C)cc2)c2ccncc2c(=O)n1C

melting point	SMILES
184 to 189 °C	CN(C)C(=O)CCc1ccc(NC(=O)Nc2ccc(Cl)c(C(F)(F)F)c2)c(-c2nnn[nH]2)c1
52 °C	COc1cccc(C(=O)c2cccc(Cl)c2)c1
72.5 to 74.5 °C	COc1ccccc1NC(=O)c1ccc(C)cc1
138 to 140 °C	Cc1ccc(N)cc1Nc1nccc(-c2cccnc2)n1
108 to 110 °C	COc1ccc(OC(C(=O)O)c2ccccc2)cc1 (stereo unspecified)
125 to 127 °C	CCCCc1nc(C2CCCCC2)nn1Cc1ccc(-c2ccccc2-c2nnn[nH]2)cc1
102 to 104 °C	CS(=O)(=O)N1CCC(COCc2cc(C(F)(F)F)cc(C(F)(F)F)c2)(c2ccccc2)CC1
135 to 141 °C	N#Cc1cccc(-c2ccc(O)cc2)c1
174 to 175 °C	COC(=O)c1ccc(=O)n(CCNC(=O)c2cnc3ccccc3c2)c1
152 °C	Cc1c(CC(=O)O)cccc1C(=O)c1ccc(Cl)cc1
115 to 117 °C	C[C@H](c1ccccc1)N1C(=O)c2cccc([N+](=O)[O-])c2C1=O
190 °C	O=C(O)CSc1nccc(-n2cc(C3c4ccccc4C=Cc4ccccc43)c(=S)[nH]c2=O)n1
56 to 57 °C	Cc1cccc(CSCCNC(=O)c2c(Cl)cccc2Cl)c1
318 to 320 °C	NS(=O)(=O)c1cccc(NC(=O)c2cnn3ccc(-c4ccc(C(F)(F)F)cc4)nc23)c1
140 to 145 °C	O=C(O)c1cc2n(n1)CCC2
247 to 249 °C	COC(=O)c1cc(NC(=O)c2ccccc2)c2cc(Cc3ccc(F)cc3)cnc2c1O
211 to 213 °C	O=C(O)c1cc(-n2c(-c3cccs3)cc3c2CCCC3)ccc1O
70 to 72 °C	CCOC(=O)c1cnnn1C[C@@H]1CN(c2ccc(N3CCC(=CC#N)CC3)c(F)c2)C(=O)O1
111 to 113 °C	CCCCc1oc2ccccc2c1C(O)c1ccc(-c2ccc(OCC(=O)O)cc2)cc1 (stereo unspecified)

The remaining lines, values behind:

SMILES	melting point
CCOCn1c(C(F)(F)F)c(C#N)c2ccc(Cl)cc21	83 to 86 °C
CCCS(=O)(=O)c1cc([C@H]2CC[C@H](c3cc(OC)c(OC)c(OC)c3)O2)cc(OC)c1OCCSc1ccc(N(C)C)cc1 (relative stereo)	113 to 115 °C
COC(=O)c1ccc(-c2nc(CCl)c(C)o2)cc1	130 to 131 °C
COc1cc2c(=O)n3nc(C(=O)O)cc3n(C)c2cc1OC	284 to 285 °C
N=C(NC1CC1)c1cc2c(cn1)[nH]c1ccccc12	253 °C
COC(=O)[C@H](C)NC(=O)CCn1cc(C2=C(c3cn(C)c4ccccc34)C(=O)NC2=O)c2ccccc21	142 to 149 °C
CC(C)(C)OC(=O)N1CCN(C(=O)N2CC(=O)Nc3ccccc32)CC1	166 to 167 °C
CC(C)NC(=O)C1OC1c1ccccc1 (stereo unspecified)	114 to 115 °C
CC1(C)CC(c2ccccn2)c2cc(C#N)ccc2O1 (stereo unspecified)	114 to 115 °C
CC12CCC(=O)C=C1CCC1C2=CCC2(C)C(=O)CCC12 (stereo unspecified)	196 to 202 °C
O=C1CC2(CCC2)C(CC(Cl)(Cl)Cl)O1 (stereo unspecified)	86.5 to 87.5 °C
CC(C)(CCC(F)(F)C(F)(F)C(F)(F)C(F)(F)C(F)(F)C(F)(F)C(F)(F)C(F)(F)F)OC(=O)N1CCC(C(=O)O)CC1	140 to 142 °C
CC(C)(C)c1ccc(C(O)(c2ccc(C(C)(C)C)cc2)c2ncc[nH]2)cc1	215 to 216 °C
COCCOc1ccc(CC(C)C(=O)O)c(Oc2ncc(C(F)(F)F)cc2Cl)c1 (stereo unspecified)	130 to 131 °C
CNC[C@H]1CC[C@H](C(=O)O)CC1	261 °C
CCCCNc1nc(-c2ccccc2)co1	52 to 53 °C

SMILES	melting point
CC(C)Oc1ccc(-c2nn(C(C)c3oc4cccc(N5CCOCC5)c4c(=O)c3-c3ccccc3)c3ncnc(N)c23)cc1F (stereo unspecified)	211 to 214 °C
O=c1cc(C(F)(F)F)ccn1-c1c(Cl)cc(C(Cl)Cl)cc1Cl	176 to 177 °C
COc1ccc(C(C=NO)C(C)C)cc1OC (stereo unspecified)	89 °C
O=C(O)[C@@H]1CCCN1C(=O)C(CS)CS	138 to 140 °C
CC(OC1CCCCO1)C(O)(Cn1cncn1)c1ccc(F)cc1F (stereo unspecified)	93 to 95 °C
C[C@@H](NCC1COc2ccccc2N1)c1ccccc1 (stereo partly specified)	91 to 92 °C
CC1=CCN(C)C2C1N2C#N (stereo unspecified)	117 °C
C=Cc1nc(C(C)C)c(Sc2cc(Cl)cc(Cl)c2)n1C	124 to 125 °C
CC(C)(C)[C@@H](CO)NS(=O)(=O)c1ccc(Cl)cc1	128 to 130 °C
CCOC(=O)Nc1cc(C(=O)N(C)OC)c(Cl)cc1F	121 °C
CS(=O)(=O)Cc1cccc(C(F)(F)F)c1N	96 to 98 °C
CCOC(=O)c1cn(CC)c2nc(Cl)ncc2c1=O	156 °C
CN(C)CCCN1C(=O)Nc2ccccc2C1C1CCCCC1 (stereo unspecified)	124 to 125 °C
O=C(NCCO)c1c([N+](=O)[O-])cccc1S(=O)(=O)NCCO	176 to 178 °C
CCOC(=O)[C@@H]1OC(c2ccc(O)c(OCC)c2)O[C@H]1C(=O)OCC	78 to 80 °C
CC(C)Cc1ccc2oc(=O)c(=O)oc2c1	92 to 97 °C
